Experimental data from ChEMBL document CHEMBL3045290, “Novel salicylamide derivatives incorporating neonicotinoid pharmacophore: design, synthesis, characterization, and biological evaluation” (2013).

Assays:
Type in all cases: functional
Helicoverpa armigera [1] = assay: Insecticidal activity against Helicoverpa armigera fed on artificial diet containing compound assessed as mortality at 1000 ug/ml after 96 hr
Plutella xylostella [2] = assay: Insecticidal activity against Plutella xylostella (diamondback moth) fed on artificial diet containing compound assessed as mortality at 62.5 ug/ml after 96 hr
Plutella xylostella [3] = assay: Insecticidal activity against Plutella xylostella (diamondback moth) fed on artificial diet containing compound assessed as mortality at 250 ug/ml after 96 hr
Helicoverpa armigera [4] = assay: Insecticidal activity against Helicoverpa armigera fed on artificial diet containing compound assessed as mortality at 500 ug/ml after 96 hr
Helicoverpa armigera [5] = assay: Insecticidal activity against Helicoverpa armigera fed on artificial diet containing compound assessed as mortality at 250 ug/ml after 96 hr
Plutella xylostella [6] = assay: Insecticidal activity against Plutella xylostella (diamondback moth) fed on artificial diet containing compound assessed as mortality at 31.25 ug/ml after 96 hr
Helicoverpa armigera [7] = assay: Insecticidal activity against Helicoverpa armigera fed on artificial diet containing compound assessed as mortality at 125 ug/ml after 96 hr
Helicoverpa armigera [8] = assay: Insecticidal activity against Helicoverpa armigera fed on artificial diet containing compound assessed as mortality at 62.5 ug/ml after 96 hr
Plutella xylostella [9] = assay: Insecticidal activity against Plutella xylostella (diamondback moth) fed on artificial diet containing compound assessed as mortality at 1000 ug/ml after 96 hr
Plutella xylostella [10] = assay: Insecticidal activity against Plutella xylostella (diamondback moth) fed on artificial diet containing compound assessed as mortality at 500 ug/ml after 96 hr
Helicoverpa armigera [11] = assay: Insecticidal activity against Helicoverpa armigera fed on artificial diet containing compound assessed as mortality at 31.25 ug/ml after 96 hr
Plutella xylostella [12] = assay: Insecticidal activity against Plutella xylostella (diamondback moth) fed on artificial diet containing compound assessed as mortality at 125 ug/ml after 96 hr

| SMILES | mortality at 1000 µg/mL (Helicoverpa armigera [1]) | mortality at 62.5 µg/mL (Plutella xylostella [2]) | mortality at 250 µg/mL (Plutella xylostella [3]) | mortality at 500 µg/mL (Helicoverpa armigera [4]) | mortality at 250 µg/mL (Helicoverpa armigera [5]) | mortality at 31.25 µg/mL (Plutella xylostella [6]) | mortality at 125 µg/mL (Helicoverpa armigera [7]) | mortality at 62.5 µg/mL (Helicoverpa armigera [8]) | mortality at 1000 µg/mL (Plutella xylostella [9]) | mortality at 500 µg/mL (Plutella xylostella [10]) | mortality at 31.25 µg/mL (Helicoverpa armigera [11]) | mortality at 125 µg/mL (Plutella xylostella [12]) |
| --- | --- | --- | --- | --- | --- | --- | --- | --- | --- | --- | --- | --- |
| O=C(Nc1cc(Cl)c(OC(F)(F)C(F)F)c(Cl)c1)c1ccccc1OCc1ccc(Cl)nc1 | 100% | 41% | 100% | 41% | 41% | 41% | 0% | 0% | 100% | 100% | 0% | 100% |
| O=C(Nc1ccc(I)cc1)c1ccccc1OCc1ccc(Cl)nc1 | 0% | 0% | 100% | 0% | 0% | 0% | 0% | 0% | 100% | 100% | 0% | 41% |
| CCN(CC)C(=O)c1ccccc1OCc1ccc(Cl)nc1 | 41% | 0% | 0% | 0% | 0% | 0% | 0% | 0% | 41% | 0% | 0% | 0% |
| CC(C)N(C(=O)c1ccccc1OCc1ccc(Cl)nc1)C(C)C | 100% | 0% | 100% | 100% | 41% | 0% | 41% | 0% | 100% | 100% | 0% | 41% |
| N#CCN(C(=O)c1ccccc1OCc1ccc(Cl)nc1)c1ccccc1 | 100% | 0% | 0% | 81% | 41% | 0% | 41% | 0% | 0% | 0% | 0% | 0% |
| CC(C)NC(=O)c1ccccc1OCc1ccc(Cl)nc1 | 41% | 0% | 100% | 41% | 0% | 0% | 0% | 0% | 100% | 100% | 0% | 41% |
| COc1ccc(NC(=O)c2ccccc2OCc2ccc(Cl)nc2)cc1 | 0% | 81% | 100% | 0% | 0% | 41% | 0% | 0% | 100% | 100% | 0% | 100% |
| O=C(Nc1ccccn1)c1ccccc1OCc1ccc(Cl)nc1 | 0% | 0% | 41% | 0% | 0% | 0% | 0% | 0% | 100% | 41% | 0% | 0% |
| O=C(Nc1cc(C(F)(F)F)cc(C(F)(F)F)c1)c1ccccc1OCc1ccc(Cl)nc1 | 0% | 0% | 0% | 0% | 0% | 0% | 0% | 0% | 0% | 0% | 0% | 0% |
| Cc1cc(Cl)ccc1NC(=O)c1ccccc1OCc1ccc(Cl)nc1 | 100% | 0% | 41% | 41% | 41% | 0% | 0% | 0% | 100% | 41% | 0% | 41% |
| Cc1ccccc1NC(=O)c1ccccc1OCc1ccc(Cl)nc1 | 0% | 0% | 0% | 0% | 0% | 0% | 0% | 0% | 0% | 0% | 0% | 0% |
| O=C(Nc1ccc(C(F)(F)F)cc1)c1ccccc1OCc1ccc(Cl)nc1 | 100% | 100% | 100% | 100% | 100% | 81% | 100% | 100% | 100% | 100% | 61% | 100% |
| O=C(Nc1ccc(Br)cc1)c1ccccc1OCc1ccc(Cl)nc1 | 100% | 100% | 100% | 100% | 81% | 41% | 81% | 61% | 100% | 100% | 61% | 100% |
| O=C(NC1CCCCC1)c1ccccc1OCc1ccc(Cl)nc1 | 0% | 0% | 0% | 0% | 0% | 0% | 0% | 0% | 41% | 0% | 0% | 0% |
| O=C(Nc1ccc(F)cc1)c1ccccc1OCc1ccc(Cl)nc1 | 41% | 0% | 41% | 41% | 41% | 0% | 41% | 0% | 100% | 81% | 0% | 41% |
| O=C(Nc1ccccc1)c1ccccc1OCc1ccc(Cl)nc1 | 0% | 0% | 41% | 0% | 0% | 0% | 0% | 0% | 81% | 81% | 0% | 41% |
| O=C(c1ccccc1OCc1ccc(Cl)nc1)N1CCOCC1 | 100% | 0% | 0% | 41% | 0% | 0% | 0% | 0% | 41% | 0% | 0% | 0% |
| O=C(c1ccccc1OCc1ccc(Cl)nc1)N1CCCCC1 | 41% | 0% | 0% | 0% | 0% | 0% | 0% | 0% | 41% | 41% | 0% | 0% |
| CC(C)c1ccc(NC(=O)c2ccccc2OCc2ccc(Cl)nc2)cc1 | 100% | 41% | 100% | 81% | 61% | 0% | 61% | 41% | 100% | 100% | 41% | 41% |
